Results on 17 molecules are retold here after PubChem BioAssay (NCI).

Holding throughout (experiment): growth of human tumour cells (NCI), 48 h
Assay [1] has as its system MALME-3M melanoma.
In assay [2] the test system is DMS 114 small cell lung.
Assay [3] relates to SK-MEL-5 melanoma.
For assay [4], the system named is ACHN renal.
Assay [5] concerns KM20L2 colon.
In assay [6] the test system is SK-MEL-28 melanoma.
Assay [7] concerns NCI-H522 lung.
The test system of assay [8] is EKVX NSCLC.

Molecules are shown by their SMILES.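 Method: 48-hour compound exposure of cells in 96-well plates, five concentrations, linear interpolation of endpoints. GI50 = concentration required for 50% inhibition of growth. TGI denotes the concentration required for complete inhibition of growth.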

With `COC1(OC)C2(Cl)C(Cl)=C(Cl)C1(Cl)C1C2C2CC1(C(=O)O)c1ccccc12` (configuration not stated), the TGI in assay [1] was 32.1 µM; in assay [2], 39.9 µM; in assay [3], 30.5 µM; in assay [4], more than 100 µM; in assay [5], 62.8 µM; in assay [6] it was 38.9 µM.

For the molecule `COC(=O)C1=CC2C=CC(C1C(=O)OC)C1C(C(=O)OC)=C(C(=O)OC)C(C(=O)OC)=C(C(=O)OC)C21OC` (configuration not stated), the TGI in assay [1], in assay [2], in assay [3], in assay [4], in assay [7] and in assay [8] was more than 100 µM each time. In addition, the TGI in assay [5] and in assay [6] was more than 100 µM throughout.

Take `N#CC(C(=O)/C(=N\NC(N)=O)C(C#N)c1ccccc1)c1ccccc1` (configuration not stated): the TGI in assay [1], in assay [4], in assay [7], in assay [8], in assay [5] and in assay [6] was more than 100 µM in each case.

For `NC1=NN(c2ccccc2)C(=O)C1C(=O)C(=O)Nc1ccc(Cl)c(Cl)c1` (configuration not stated), the TGI in assay [1], in assay [2], in assay [3], in assay [4], in assay [7] and in assay [8] was more than 100 µM in each case. The TGI in assay [5] and in assay [6] was more than 100 µM throughout.

As for `Cc1cc(=O)n(-c2cc3cccccc-3n2)[nH]1`, the TGI in assay [1] is 9.84 µM; in assay [2], 7.73 µM; in assay [3], 5.32 µM; in assay [4], 50.3 µM; in assay [7], 6.86 µM; in assay [8], 96.7 µM. Also, the TGI in assay [5] and in assay [6] was more than 100 µM each time.

Take `COC(=O)[C@@H]1Cc2c([nH]c3ccccc23)[C@H](c2ccccc2)N1`: the TGI in assay [1] was more than 100 µM; in assay [2], 84 µM; in assay [3] it was 63.4 µM; in assay [4], more than 100 µM; in assay [7] it was 53.1 µM; in assay [8] it was more than 100 µM. For the same molecule, the TGI in assay [5] and in assay [6] was more than 100 µM each time.

With `CCOc1ccccc1N=Nc1c(-c2ccccc2)nn(C(=O)CC(=O)Nc2cccc(C)c2)c1-c1ccccc1`, the TGI in assay [1], in assay [2], in assay [3], in assay [4], in assay [7] and in assay [8] was more than 100 µM throughout. The TGI in assay [5] and in assay [6] was more than 100 µM each time.

In the case of `COC(=O)C1C(=O)O[C@@H](c2cc(OC)c(OC)cc2OC)C1C(=O)OC` (mixture of isomers), the TGI in assay [1], in assay [2], in assay [3], in assay [4], in assay [7] and in assay [8] was more than 100 µM throughout. Also, the TGI in assay [5] and in assay [6] was more than 100 µM throughout.

For `O=C(Nc1ccc(Cl)cc1Cl)OC(Cn1cncn1)c1ccc(Cl)cc1Cl` (configuration not stated), the TGI in assay [1] was found to be 29.3 µM; in assay [2], 29.8 µM; in assay [3] it was 30.7 µM; in assay [4] it was 29 µM; in assay [7], 34.8 µM; in assay [8] it was 31.5 µM. Besides, the TGI in assay [5] worked out at 30.3 µM; in assay [6], 30.1 µM.

Regarding `CNS(=O)(=O)NNS(=O)(=O)c1ccc(OC)cc1`, the TGI in assay [1], in assay [2], in assay [3], in assay [4], in assay [7] and in assay [8] was more than 100 µM in each case. In assay [5], the TGI is more than 100 µM.

On to `C/C=C1\CN2CCc3c([nH]c4ccccc34)C2CC1CCO` (configuration not stated), for which the TGI in assay [1], in assay [2], in assay [3], in assay [4], in assay [7] and in assay [8] was more than 100 µM in each case. Besides, the TGI in assay [5] and in assay [6] was more than 100 µM in each case.

In the case of `Clc1cccc(C2N3CCCCC3[C@@H]3c4[nH]c5ccccc5c4CCN23)c1` (some centres not stated), the TGI was 42.2 µM in assay [1]; 55.6 µM in assay [2]; 34.1 µM in assay [3]; 69.4 µM in assay [4]; more than 100 µM in assay [8]; more than 100 µM in assay [5]. Moreover, the TGI in assay [6] is 79.9 µM.

For `CC(=O)[C@H]1CCC2[C@@H]3CC=C4C[C@@H]([O-])CC[C@]4(C)C3CC[C@@]21C.CC(=O)[C@H]1CCC2[C@@H]3CC=C4C[C@@H]([O-])CC[C@]4(C)C3CC[C@@]21C.CC(=O)[CH-]C(=O)c1ccccc1.CC(=O)[CH-]C(=O)c1ccccc1.Cl.[Ti+4]` (some centres not stated), the GI50 was 16 µM in assay [1]; 18.3 µM in assay [3]; 22.8 µM in assay [4]; 20.3 µM in assay [7]; 10.8 µM in assay [5]. Also, the TGI in assay [1] is 37.3 µM; in assay [3], more than 100 µM; in assay [4], 99.1 µM; in assay [7], 66.5 µM; in assay [5] it was more than 100 µM.

Consider `CCNC(=O)OCc1c(COC(=O)NCC)c(-c2ccc(Cl)c(Cl)c2)n2c1CCC2`, for which the TGI is 30.7 µM in assay [1]; 25.4 µM in assay [2]; 29.8 µM in assay [3]; 37.5 µM in assay [4]; 19.8 µM in assay [7]; 68.3 µM in assay [5]. In assay [6], the TGI amounted to 36.9 µM.

In the case of `Nc1c(Cl)ncnc1NCCCCCCCCCCCCNc1ncnc(Cl)c1N`, the TGI in assay [1] is more than 100 µM; in assay [2], 2.49 µM; in assay [3], 3.88 µM; in assay [8] it was 98.1 µM; in assay [5], more than 100 µM; in assay [6], 5.22 µM.

Consider `Cc1cc(C)c(-c2noc(-c3ccc(Cl)cc3)c2C2=NCCCN2)c(C)c1`, for which the TGI is 36.8 µM in assay [1]; 24.2 µM in assay [3]; more than 100 µM in assay [4]; 71.3 µM in assay [7]; more than 100 µM in assay [8]; 70.6 µM in assay [5]. Also, in assay [6], the TGI worked out at 29.9 µM.

`COc1ccc(S(=O)(=O)N(CC(=O)O)c2ccccc2)cc1`: the TGI in assay [1], in assay [3], in assay [4], in assay [7], in assay [8] and in assay [5] was more than 100 µM throughout. The molecule also yielded a TGI in assay [6] of more than 100 µM.
